According to PubChem BioAssay (NCI):
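Results reflect a 48-hour exposure of cells in 96-well plates to compound at five concentrations. Definition used: TGI = concentration required for complete inhibition of growth.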

Assays:
Experiment in all cases: NCI tumour cell line growth inhibition, 48 h
[1] = system: 786-0 renal
[2] = system: A498 renal
[3] = system: A549 NSCLC
[4] = system: ACHN renal
[5] = system: CAKI-1 renal
[6] = system: CCRF-CEM leukemia
[7] = system: DLD-1 colon
[8] = system: DMS 114 small cell lung
[9] = system: DMS 273 small cell lung
[10] = system: EKVX NSCLC
[11] = system: HCC-2998 colon
[12] = system: HCT-116 colon
[13] = system: HCT-15 colon
[14] = system: HL-60(TB) leukemia
[15] = system: HOP-18 NSCLC
[16] = system: HOP-62 NSCLC
[17] = system: HOP-92 NSCLC
[18] = system: HT29 colon
[19] = system: IGROV1 ovarian
[20] = system: K-562 leukemia
[21] = system: KM12 colon
[22] = system: KM20L2 colon
[23] = system: LXFL 529 NSCLC
[24] = system: M14 melanoma
[25] = system: M19-MEL melanoma
[26] = system: MALME-3M melanoma
[27] = system: MOLT-4 leukemia
[28] = system: NCI-H226 lung
[29] = system: NCI-H23 lung
[30] = system: NCI-H460 lung
[31] = system: NCI-H522 lung
[32] = system: OVCAR-4 ovarian
[33] = system: OVCAR-5 ovarian
[34] = system: OVCAR-8 ovarian
[35] = system: RPMI-8226 leukemia
[36] = system: RXF 393 renal
[37] = system: RXF-631 renal
[38] = system: SF-268 CNS
[39] = system: SF-295 CNS
[40] = system: SF-539 CNS
[41] = system: SK-MEL-2 melanoma
[42] = system: SK-MEL-28 melanoma
[43] = system: SK-MEL-5 melanoma
[44] = system: SK-OV-3 ovarian
[45] = system: SN12C renal
[46] = system: SNB-19 CNS
[47] = system: SNB-75 CNS
[48] = system: SNB-78 CNS
[49] = system: SR leukemia
[50] = system: SW-620 colon
[51] = system: TK-10 renal
[52] = system: U251 CNS
[53] = system: UACC-257 melanoma
[54] = system: UACC-62 melanoma
[55] = system: UO-31 renal
[56] = system: XF 498 CNS
[57] = system: COLO 205 colon
[58] = system: LOX IMVI melanoma
[59] = system: OVCAR-3 ovarian
[60] = system: MCF7 breast
[61] = system: NCI/ADR-RES ovarian
[62] = system: P388 leukemia
[63] = system: P388/ADR leukemia
[64] = system: SN12K1 renal

CN(C)C(=S)/N=c1\ssc(=S)n1C
TGI [1]: > 100 µM
TGI [2]: > 100 µM
TGI [3]: > 100 µM
TGI [4]: > 100 µM
TGI [5]: > 100 µM
TGI [6]: > 100 µM
TGI [7]: > 100 µM
TGI [8]: > 100 µM
TGI [9]: > 100 µM
TGI [10]: > 100 µM
TGI [11]: > 100 µM
TGI [12]: > 100 µM
TGI [13]: > 100 µM
TGI [14]: > 100 µM
TGI [15]: > 100 µM
TGI [16]: > 100 µM
TGI [17]: > 100 µM
TGI [18]: > 100 µM
TGI [19]: > 100 µM
TGI [20]: > 100 µM
TGI [21]: > 100 µM
TGI [22]: > 100 µM
TGI [23]: > 100 µM
TGI [24]: > 100 µM
TGI [25]: > 100 µM
TGI [26]: > 100 µM
TGI [27]: > 100 µM
TGI [28]: > 100 µM
TGI [29]: > 100 µM
TGI [30]: > 100 µM
TGI [31]: > 100 µM
TGI [32]: > 100 µM
TGI [33]: > 100 µM
TGI [34]: > 100 µM
TGI [35]: > 100 µM
TGI [36]: > 100 µM
TGI [37]: > 100 µM
TGI [38]: > 100 µM
TGI [39]: > 100 µM
TGI [40]: > 100 µM
TGI [41]: > 100 µM
TGI [42]: > 100 µM
TGI [43]: > 100 µM
TGI [44]: > 100 µM
TGI [45]: > 100 µM
TGI [46]: > 100 µM
TGI [47]: > 100 µM
TGI [48]: > 100 µM
TGI [49]: > 100 µM
TGI [50]: > 100 µM
TGI [51]: > 100 µM
TGI [52]: > 100 µM
TGI [53]: > 100 µM
TGI [54]: > 100 µM
TGI [55]: > 100 µM
TGI [56]: > 100 µM

CN(C)c1ccc(/C=C(\NC(=O)c2ccccc2)c2nc3ccc4c(c3[nH]2)C(=O)c2ccccc2C4=O)cc1
TGI [1]: > 100 µM
TGI [2]: > 100 µM
TGI [3]: > 100 µM
TGI [5]: > 100 µM
TGI [6]: > 100 µM
TGI [57]: > 100 µM
TGI [7]: 55.7 µM
TGI [8]: > 100 µM
TGI [9]: > 100 µM
TGI [10]: > 100 µM
TGI [11]: > 100 µM
TGI [12]: > 100 µM
TGI [13]: > 100 µM
TGI [16]: > 100 µM
TGI [17]: 97.3 µM
TGI [18]: > 100 µM
TGI [19]: > 100 µM
TGI [20]: > 100 µM
TGI [21]: > 100 µM
TGI [22]: > 100 µM
TGI [58]: > 100 µM
TGI [23]: > 100 µM
TGI [24]: > 100 µM
TGI [25]: > 100 µM
TGI [26]: > 100 µM
TGI [27]: 31.3 µM
TGI [29]: > 100 µM
TGI [30]: > 100 µM
TGI [31]: > 100 µM
TGI [59]: > 100 µM
TGI [32]: > 100 µM
TGI [33]: > 100 µM
TGI [34]: > 100 µM
TGI [35]: > 100 µM
TGI [36]: 93.8 µM
TGI [37]: > 100 µM
TGI [38]: > 100 µM
TGI [39]: > 100 µM
TGI [40]: > 100 µM
TGI [41]: > 100 µM
TGI [42]: > 100 µM
TGI [43]: > 100 µM
TGI [44]: > 100 µM
TGI [45]: > 100 µM
TGI [46]: > 100 µM
TGI [47]: 64.2 µM
TGI [48]: > 100 µM
TGI [50]: > 100 µM
TGI [51]: > 100 µM
TGI [52]: > 100 µM
TGI [53]: > 100 µM
TGI [54]: > 100 µM
TGI [55]: 7.37 µM

C1=Cc2nc1c(-c1ccccc1)c1ccc([nH]1)c(-c1ccccc1)c1nc(c(-c3ccccc3)c3ccc([nH]3)c2-c2ccccc2)C=C1
TGI [1]: > 100 µM
TGI [2]: > 100 µM
TGI [3]: > 100 µM
TGI [4]: > 100 µM
TGI [5]: > 100 µM
TGI [6]: > 100 µM
TGI [57]: > 100 µM
TGI [7]: > 100 µM
TGI [8]: > 100 µM
TGI [9]: > 100 µM
TGI [10]: > 100 µM
TGI [11]: > 100 µM
TGI [12]: > 100 µM
TGI [13]: > 100 µM
TGI [14]: > 100 µM
TGI [15]: > 100 µM
TGI [16]: > 100 µM
TGI [17]: > 100 µM
TGI [18]: > 100 µM
TGI [19]: > 100 µM
TGI [20]: > 100 µM
TGI [21]: > 100 µM
TGI [22]: > 100 µM
TGI [58]: > 100 µM
TGI [23]: > 100 µM
TGI [24]: > 100 µM
TGI [25]: > 100 µM
TGI [26]: > 100 µM
TGI [27]: > 100 µM
TGI [28]: > 100 µM
TGI [29]: > 100 µM
TGI [30]: > 100 µM
TGI [31]: > 100 µM
TGI [59]: > 100 µM
TGI [32]: > 100 µM
TGI [33]: > 100 µM
TGI [34]: > 100 µM
TGI [35]: > 100 µM
TGI [37]: > 100 µM
TGI [38]: > 100 µM
TGI [39]: > 100 µM
TGI [40]: > 100 µM
TGI [41]: > 100 µM
TGI [42]: > 100 µM
TGI [43]: > 100 µM
TGI [44]: > 100 µM
TGI [45]: > 100 µM
TGI [46]: > 100 µM
TGI [47]: > 100 µM
TGI [48]: > 100 µM
TGI [49]: > 100 µM
TGI [50]: > 100 µM
TGI [51]: > 100 µM
TGI [52]: > 100 µM
TGI [53]: > 100 µM
TGI [54]: > 100 µM
TGI [55]: > 100 µM

CCOC(=O)/C=C/c1c(C)[nH]c(=O)[nH]c1=O
TGI [2]: > 250 µM
TGI [3]: > 250 µM
TGI [5]: > 234 µM
TGI [6]: > 250 µM
TGI [57]: > 250 µM
TGI [7]: > 250 µM
TGI [8]: > 250 µM
TGI [9]: > 250 µM
TGI [10]: > 250 µM
TGI [11]: > 250 µM
TGI [12]: > 250 µM
TGI [13]: > 250 µM
TGI [14]: > 250 µM
TGI [15]: > 250 µM
TGI [16]: > 250 µM
TGI [17]: > 25 µM
TGI [18]: > 250 µM
TGI [19]: > 250 µM
TGI [20]: > 250 µM
TGI [21]: > 250 µM
TGI [22]: > 250 µM
TGI [58]: > 250 µM
TGI [25]: > 250 µM
TGI [26]: > 250 µM
TGI [60]: > 250 µM
TGI [27]: > 250 µM
TGI [28]: > 250 µM
TGI [29]: > 250 µM
TGI [30]: > 250 µM
TGI [31]: > 250 µM
TGI [61]: > 250 µM
TGI [59]: > 250 µM
TGI [32]: > 158 µM
TGI [33]: > 250 µM
TGI [34]: > 250 µM
TGI [62]: > 141 µM
TGI [63]: > 158 µM
TGI [35]: > 250 µM
TGI [36]: > 250 µM
TGI [38]: > 250 µM
TGI [39]: > 250 µM
TGI [40]: > 250 µM
TGI [41]: > 250 µM
TGI [42]: > 250 µM
TGI [43]: > 250 µM
TGI [44]: > 141 µM
TGI [45]: > 250 µM
TGI [64]: > 250 µM
TGI [46]: > 250 µM
TGI [47]: > 250 µM
TGI [48]: > 250 µM
TGI [50]: > 250 µM
TGI [52]: > 250 µM
TGI [53]: > 250 µM
TGI [54]: > 250 µM
TGI [55]: > 250 µM
TGI [56]: > 250 µM

COc1ccc(O)c(C(=O)CCC(=O)O)c1
TGI [1]: > 100 µM
TGI [2]: > 100 µM
TGI [3]: > 100 µM
TGI [4]: > 100 µM
TGI [6]: > 100 µM
TGI [57]: > 100 µM
TGI [7]: > 100 µM
TGI [8]: > 100 µM
TGI [9]: > 100 µM
TGI [10]: > 100 µM
TGI [11]: > 100 µM
TGI [13]: > 100 µM
TGI [14]: > 100 µM
TGI [16]: > 10 µM
TGI [17]: > 100 µM
TGI [18]: > 100 µM
TGI [19]: > 100 µM
TGI [20]: > 100 µM
TGI [21]: > 100 µM
TGI [58]: > 100 µM
TGI [23]: > 100 µM
TGI [24]: > 10 µM
TGI [25]: > 100 µM
TGI [26]: > 100 µM
TGI [27]: > 100 µM
TGI [28]: > 100 µM
TGI [29]: > 100 µM
TGI [30]: > 100 µM
TGI [31]: > 100 µM
TGI [59]: > 10 µM
TGI [32]: > 100 µM
TGI [33]: > 100 µM
TGI [34]: > 100 µM
TGI [35]: > 100 µM
TGI [36]: > 100 µM
TGI [37]: > 100 µM
TGI [38]: > 100 µM
TGI [39]: > 100 µM
TGI [40]: > 100 µM
TGI [41]: > 100 µM
TGI [42]: > 100 µM
TGI [43]: > 100 µM
TGI [44]: > 100 µM
TGI [45]: > 100 µM
TGI [46]: > 100 µM
TGI [47]: > 100 µM
TGI [48]: > 100 µM
TGI [49]: > 100 µM
TGI [50]: > 100 µM
TGI [51]: > 100 µM
TGI [52]: > 100 µM
TGI [53]: 29 µM
TGI [54]: > 100 µM
TGI [55]: > 100 µM
TGI [56]: > 100 µM
